Structures are written as SMILES. pIC50: −log10 of the molar value.

The results in this text go back to ChEMBL document CHEMBL1142550, “Thiopyrano[2,3-e]indol-2-ones: angelicin heteroanalogues with potent photoantiproliferative activity” (Bioorg Med Chem, 2008).

Holding throughout (type): functional, cell-based
The subject of assay [1] is Jurkat. The experiment in a line: Photocytotoxicity against human JURKAT cells treated 30 mins before 2.5 J/cm'2 UVA irradiation measured after 72 hrs by MTT assay. The settings on record: light or radiation study.
A short description of assay [2]: Photocytotoxicity against human NCTC 2544 cells treated 30 mins before 3.75 J/cm'2 UVA irradiation measured after 72 hrs by MTT assay. The settings on record: NCTC-2544, light or radiation study.
The nature of assay [3]: Photocytotoxicity against human NCTC 2544 cells treated 30 mins before 2.5 J/cm'2 UVA irradiation measured after 72 hrs by MTT assay. The settings on record: NCTC-2544, light or radiation study. (In general: Tetrazolium dyes change colour on reduction, which living cells bring about.)
Assay [4] relates to HT-1080. The experiment in a line: Photocytotoxicity against human HT1080 cells treated 30 mins before 2.5 J/cm'2 UVA irradiation measured after 72 hrs by MTT assay. The settings on record: HT-1080, light or radiation study.
The test system of assay [5] is HT-1080. Description: Photocytotoxicity against human HT1080 cells treated 30 mins before 3.75 J/cm'2 UVA irradiation measured after 72 hrs by MTT assay. The settings on record: HT-1080, light or radiation study.
Assay [6] deals with Jurkat. The experiment in a line: Photocytotoxicity against human JURKAT cells treated 30 mins before 3.75 J/cm'2 UVA irradiation measured after 72 hrs by MTT assay. The settings on record: light or radiation study.
The subject of assay [7] is HL-60. The experiment in a line: Photocytotoxicity against human HL-60 cells treated 30 mins before 2.5 J/cm'2 UVA irradiation measured after 72 hrs by MTT assay. The settings on record: HL-60, light or radiation study.
The subject of assay [8] is LoVo. Description: Photocytotoxicity against human LoVo cells treated 30 mins before 2.5 J/cm'2 UVA irradiation measured after 72 hrs by MTT assay. The settings on record: light or radiation study.
Assay [9] has as its system LoVo. The experiment in a line: Photocytotoxicity against human LoVo cells treated 30 mins before 3.75 J/cm'2 UVA irradiation measured after 72 hrs by MTT assay. The settings on record: light or radiation study.
The test system of assay [10] is HL-60. Description: Photocytotoxicity against human HL-60 cells treated 30 mins before 3.75 J/cm'2 UVA irradiation measured after 72 hrs by MTT assay. The settings on record: HL-60, light or radiation study.

On to `O=c1ccc2ccc3occc3c2o1` [ANGELICIN], for which the pIC50 with Jurkat [1] is 6.05; in [2] it was 5.82; in assay [3] it was 5.38.

Turning to `Cc1cc2c(n1Cc1ccccc1)CCc1ccc(=O)sc1-2`, the pIC50 with HT-1080 [4] is 4.95; in the assay with Jurkat [1] it was 5.40; with HT-1080 [5], 5.01; in [2] it was under 4.70; with Jurkat [6], 5.66; in the assay with HL-60 [7], 5.40. Moreover, the pIC50 (with LoVo [8]; in assay [3]) was under 4.70 in each case.

Turning to `Cc1cc2c(n1C)CCc1ccc(=O)sc1-2`, the pIC50 in the assay with HT-1080 [4] was under 4.70; in the assay with Jurkat [1] it was under 5.00; with HT-1080 [5] it was under 4.70; in assay [2], under 4.70; in the assay with Jurkat [6] it was under 5.00; with HL-60 [7] it was under 5.00. In addition, the pIC50 in the assay with LoVo [8] is under 4.70; in the assay with LoVo [9], under 4.70; with HL-60 [10], under 5.00; in assay [3], under 4.70.

Regarding `Cc1cc2c(n1S(=O)(=O)c1ccccc1)CCc1ccc(=O)sc1-2`, the negative logarithm of the IC50 (pIC50) in the assay on HT-1080 [4] is under 4.70; in the assay with Jurkat [1], 5.14; in the assay on HT-1080 [5], under 4.70; in assay [2] it was under 4.70; with Jurkat [6], 5.30; in the assay with HL-60 [7], under 5.00. The pIC50 was under 4.70 with LoVo [8], under 4.70 in the assay on LoVo [9], under 5.00 in the assay on HL-60 [10] and under 4.70 in assay [3].

As a reminder, the pIC50 is the IC50 on a negative log10 scale, so that one unit is a factor of ten. Low values mean a high IC50, high ones a low IC50.
